The text below walks through data of US7659113B2 (priority 2002, dated 2010).

Structures are written as SMILES. “Also recorded” adds a separate entry of the source.

One assay has as its system influenza virus. Particulars: cited from earlier work.
For assay [1], the system named is VSV-G pseudotyped SIN-6.1CZW vector. It counts as cell-based.
The next assay concerns VSV. The settings on record: cited from earlier work.
In assay [2] the test system is FPV HA/M2 pseudotyped SIN-6.1CZW vector. It counts as cell-based.
For the next assay, the target named is wild type FPV M2 (Influenza A virus, UniProt P03492). Put plainly: cell-based. It counts as cell-based.
wild type FPV M2, sequence (P03492 whole entry, looked up): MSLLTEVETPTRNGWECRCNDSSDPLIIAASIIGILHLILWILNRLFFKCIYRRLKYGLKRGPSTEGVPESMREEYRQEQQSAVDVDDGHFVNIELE
The test system of assay [3] is VSV-G pseudotyped SIN-6.1CZW vector. It counts as cell-based. This is another data set of the same source.

As to `NC12CC3CC(CC(C3)C1)C2` [amantadine], the “inhibition of influenza virus replication in cell culture” value in the assay on influenza virus is “effective inhibitor”. For the same compound, the “effect on pseudotyping of SIN-6.1CZW by VSV-G” value in assay [1] is “did not affect”. Besides, the “VSV replication, sensitivity to amantadine” value in the assay with VSV was “refractory”. In assay [2], the “effect on gene transfer step of HA pseudotyped vector” value is recorded as “affected the gene transfer step; also recorded: Higher doses were required to inhibit transduction than to inhibit vector production”. Besides, at wild type FPV M2, the “effect on vector production” value was “inhibits the augmentation of HA pseudotyping by M2; also recorded: potent dose-dependent effect”. Further, the inhibition at 5 µM at wild type FPV M2 (read-out: inhibition of M2 augmented vector production) was 70%. Besides, in assay [3], the “effect on gene transfer by VSV-G pseudotyped vector” value is recorded as “did not affect gene transfer”.
